How the values were obtained:
Thymus [1] = assay: Biodistribution in Wistar rat thymus assessed as standard uptake value at 1.7 MBq, iv administered as single dose measured after 10 mins post-injection by gamma counting; format: ADME, organism-based; details: in vivo
[2] = Biodistribution in Wistar rat urine at 1.7 MBq, iv administered as single dose measured after 60 mins post-injection by gamma counting; format: ADME, organism-based; details: in vivo, 1 h
Harderian gland [3] = assay: Biodistribution in Wistar rat harderian gland assessed as standard uptake value at 1.7 MBq, iv administered as single dose measured after 10 mins post-injection by gamma counting; format: ADME, organism-based; details: in vivo
Brain [4] = assay: Biodistribution in Wistar rat brain at 1.7 MBq, iv administered as single dose measured after 1 min post-injection by gamma counting; format: ADME, organism-based; details: in vivo
Femur = assay: Biodistribution in Wistar rat femur assessed as standard uptake value at 1.7 MBq, iv administered as single dose measured after 30 mins post-injection by gamma counting; format: ADME, organism-based; details: in vivo, 0.5 h
Kidney [5] = assay: Biodistribution in Wistar rat kidney assessed as standard uptake value at 1.7 MBq, iv administered as single dose measured after 1 min post-injection by gamma counting; format: ADME, organism-based; details: in vivo
Testes = assay: Biodistribution in Wistar rat testes at 1.7 MBq, iv administered as single dose measured after 1 min post-injection by gamma counting; format: ADME, organism-based, Testis; details: in vivo
Brain [6] = assay: Biodistribution in Wistar rat brain at 1.7 MBq, iv administered as single dose measured after 30 mins post-injection by gamma counting; format: ADME, organism-based; details: in vivo, 0.5 h
Adrenal gland [7] = assay: Biodistribution in Wistar rat adrenal gland assessed as standard uptake value at 1.7 MBq, iv administered as single dose measured after 30 mins post-injection by gamma counting; format: ADME, organism-based; details: in vivo, 0.5 h
Spleen [8] = assay: Biodistribution in Wistar rat spleen assessed as standard uptake value at 1.7 MBq, iv administered as single dose measured after 60 mins post-injection by gamma counting; format: ADME, organism-based; details: in vivo, 1 h
[9] = Biodistribution in Wistar rat brown adipose tissue assessed as standard uptake value at 1.7 MBq, iv administered as single dose measured after 5 mins post-injection by gamma counting; format: ADME, organism-based; details: in vivo
[10] = Ratio of drug level in heart to blood in Wistar rat at 1.7 MBq, iv administered as single dose measured after 60 mins post-injection; format: ADME, organism-based
[11] = Biodistribution in Wistar rat hair/skin assessed as standard uptake value at 1.7 MBq, iv administered as single dose measured after 60 mins post-injection by gamma counting; format: ADME, organism-based; details: in vivo, 1 h
[12] = Biodistribution in Wistar rat thyroid gland assessed as standard uptake value at 1.7 MBq, iv administered as single dose measured after 1 min post-injection by gamma counting; format: ADME, organism-based; details: in vivo
Liver [13] = assay: Biodistribution in Wistar rat liver at 1.7 MBq, iv administered as single dose measured after 5 mins post-injection by gamma counting; format: ADME, organism-based; details: in vivo
Pancreas [14] = assay: Biodistribution in Wistar rat pancreas assessed as standard uptake value at 1.7 MBq, iv administered as single dose measured after 60 mins post-injection by gamma counting; format: ADME, organism-based; details: in vivo, 1 h
Intestine = assay: Biodistribution in Wistar rat intestine at 1.7 MBq, iv administered as single dose measured after 1 min post-injection by gamma counting; format: ADME, organism-based; details: in vivo
Thymus [15] = assay: Biodistribution in Wistar rat thymus at 1.7 MBq, iv administered as single dose measured after 10 mins post-injection by gamma counting; format: ADME, organism-based; details: in vivo
Pancreas [16] = assay: Biodistribution in Wistar rat pancreas at 1.7 MBq, iv administered as single dose measured after 60 mins post-injection by gamma counting; format: ADME, organism-based; details: in vivo, 1 h
Kidney [17] = assay: Biodistribution in Wistar rat kidney at 1.7 MBq, iv administered as single dose measured after 10 mins post-injection by gamma counting; format: ADME, organism-based; details: in vivo
[18] = Octanol-phosphate buffer distribution coefficient, log D at pH 7.4 by shake-flask method; format: physicochemical
Heart = assay: Biodistribution in Wistar rat heart at 1.7 MBq, iv administered as single dose measured after 10 mins post-injection by gamma counting; format: ADME, organism-based; details: in vivo
[19] = Biodistribution in Wistar rat thyroid gland at 1.7 MBq, iv administered as single dose measured after 1 min post-injection by gamma counting; format: ADME, organism-based; details: in vivo
Harderian gland [20] = assay: Biodistribution in Wistar rat harderian gland assessed as standard uptake value at 1.7 MBq, iv administered as single dose measured after 1 min post-injection by gamma counting; format: ADME, organism-based; details: in vivo
Lung [21] = assay: Biodistribution in Wistar rat lung at 1.7 MBq, iv administered as single dose measured after 60 mins post-injection by gamma counting; format: ADME, organism-based; details: in vivo, 1 h
[22] = Ratio of drug level in pancreas to blood in Wistar rat at 1.7 MBq, iv administered as single dose measured after 5 mins post-injection; format: ADME, organism-based
Kidney [23] = assay: Biodistribution in Wistar rat kidney assessed as standard uptake value at 1.7 MBq, iv administered as single dose measured after 5 mins post-injection by gamma counting; format: ADME, organism-based; details: in vivo
Spleen [24] = assay: Biodistribution in Wistar rat spleen assessed as standard uptake value at 1.7 MBq, iv administered as single dose measured after 5 mins post-injection by gamma counting; format: ADME, organism-based; details: in vivo
[25] = Ratio of drug level in adrenal gland to blood in Wistar rat at 1.7 MBq, iv administered as single dose measured after 60 mins post-injection; format: ADME, organism-based
Brain [26] = assay: Biodistribution in Wistar rat brain at 1.7 MBq, iv administered as single dose measured after 60 mins post-injection by gamma counting; format: ADME, organism-based; details: in vivo, 1 h
[27] = Biodistribution in Wistar rat stomach at 1.7 MBq, iv administered as single dose measured after 60 mins post-injection by gamma counting; format: ADME, organism-based; details: in vivo, 1 h
Liver [28] = assay: Biodistribution in Wistar rat liver assessed as standard uptake value at 1.7 MBq, iv administered as single dose measured after 60 mins post-injection by gamma counting; format: ADME, organism-based; details: in vivo, 1 h
Adrenal gland [29] = assay: Biodistribution in Wistar rat adrenal gland at 1.7 MBq, iv administered as single dose measured after 5 mins post-injection by gamma counting; format: ADME, organism-based; details: in vivo
Harderian gland [30] = assay: Biodistribution in Wistar rat harderian gland at 1.7 MBq, iv administered as single dose measured after 60 mins post-injection by gamma counting; format: ADME, organism-based; details: in vivo, 1 h
Harderian gland [31] = assay: Biodistribution in Wistar rat harderian gland assessed as standard uptake value at 1.7 MBq, iv administered as single dose measured after 30 mins post-injection by gamma counting; format: ADME, organism-based; details: in vivo, 0.5 h
Blood = assay: Biodistribution in Wistar rat blood assessed as standard uptake value at 1.7 MBq, iv administered as single dose measured after 1 min post-injection by gamma counting; format: ADME, organism-based; details: in vivo
[32] = Ratio of drug level in harderian gland to blood in Wistar rat at 1.7 MBq, iv administered as single dose measured after 5 mins post-injection; format: ADME, organism-based
Thymus [33] = assay: Biodistribution in Wistar rat thymus assessed as standard uptake value at 1.7 MBq, iv administered as single dose measured after 5 mins post-injection by gamma counting; format: ADME, organism-based; details: in vivo
Lung [34] = assay: Biodistribution in Wistar rat lung assessed as standard uptake value at 1.7 MBq, iv administered as single dose measured after 10 mins post-injection by gamma counting; format: ADME, organism-based; details: in vivo
Lung [35] = assay: Biodistribution in Wistar rat lung at 1.7 MBq, iv administered as single dose measured after 5 mins post-injection by gamma counting; format: ADME, organism-based; details: in vivo
Harderian gland [36] = assay: Biodistribution in Wistar rat harderian gland assessed as standard uptake value at 1.7 MBq, iv administered as single dose measured after 5 mins post-injection by gamma counting; format: ADME, organism-based; details: in vivo
[37] = Phase 2 elimination half life in Wistar rat at 30 MBq, iv by radio-HPLC analysis; format: ADME, organism-based; details: in vivo, read-out: beta t1/2 (converted)

- SUV (Thymus [1]): 0.53%
- Drug uptake [2]: 43.53 %ID
- SUV (Harderian gland [3]): 1.91%
- Drug uptake (Brain [4]): 3.09 %ID
- SUV (Femur): 0.28%
- SUV (Kidney [5]): 3.36%
- Drug uptake (Testes): 0 %ID
- Drug uptake (Brain [6]): 0.44 %ID
- SUV (Adrenal gland [7]): 1.39%
- SUV (Spleen [8]): 0.13%
- SUV [9]: 2.29%
- Kp at 1 h [10]: 1.8
- SUV [11]: 0.19%
- SUV [12]: 1.55%
- Drug uptake (Liver [13]): 18.4 %ID
- SUV (Pancreas [14]): 0.3%
- Drug uptake (Intestine): 8.84 %ID
- Drug uptake (Thymus [15]): 0.23 %ID
- Drug uptake (Pancreas [16]): 0.07 %ID
- Drug uptake (Kidney [17]): 2.28 %ID
- logD [18]: 3.39
- Drug uptake (Heart): 0.35 %ID
- Drug uptake [19]: 0.09 %ID
- SUV (Harderian gland [20]): 1.92%
- Drug uptake (Lung [21]): 0.19 %ID
- Kp at 5 min [22]: 3
- SUV (Kidney [23]): 2.64%
- SUV (Spleen [24]): 0.79%
- Kp at 1 h [25]: 8.9
- Drug uptake (Brain [26]): 0.2 %ID
- Drug uptake [27]: 0.6 %ID
- SUV (Liver [28]): 1.3%
- Drug uptake (Adrenal gland [29]): 0.17 %ID
- Drug uptake (Harderian gland [30]): 0.06 %ID
- SUV (Harderian gland [31]): 1.07%
- SUV (Blood): 0.83%
- Kp at 5 min [32]: 4.4
- SUV (Thymus [33]): 0.82%
- SUV (Lung [34]): 0.85%
- Drug uptake (Lung [35]): 1.02 %ID
- SUV (Harderian gland [36]): 2.43%
- half-life [37]: 4.45 min
SMILES: O=C1Nc2ccccc2/C1=C/c1ccc([18F])cc1

Source: ChEMBL document CHEMBL1152667, “Synthesis and radiopharmacological investigation of 3-[4'-[(18)F]fluorobenzylidene]indolin-2-one as possible tyrosine kinase inhibitor” (Bioorg Med Chem, 2009)
